Assay results from patent US20220047594A1, “METHOD FOR TREATING INTERSTITIAL LUNG DISEASE” (ALTAVANT SCIENCES GmbH, priority 2018, published 2022).

How the values were obtained:
[1] = target: T1, TPH1 (Mus musculus, UniProt P17532); details: amorphous form, U.S. Pat. No. 9,199,994 Example 63i and Table 27; cited from earlier work
T1 construct: host or cells: mice (in vivo)
T1 sequence (P17532 1-447): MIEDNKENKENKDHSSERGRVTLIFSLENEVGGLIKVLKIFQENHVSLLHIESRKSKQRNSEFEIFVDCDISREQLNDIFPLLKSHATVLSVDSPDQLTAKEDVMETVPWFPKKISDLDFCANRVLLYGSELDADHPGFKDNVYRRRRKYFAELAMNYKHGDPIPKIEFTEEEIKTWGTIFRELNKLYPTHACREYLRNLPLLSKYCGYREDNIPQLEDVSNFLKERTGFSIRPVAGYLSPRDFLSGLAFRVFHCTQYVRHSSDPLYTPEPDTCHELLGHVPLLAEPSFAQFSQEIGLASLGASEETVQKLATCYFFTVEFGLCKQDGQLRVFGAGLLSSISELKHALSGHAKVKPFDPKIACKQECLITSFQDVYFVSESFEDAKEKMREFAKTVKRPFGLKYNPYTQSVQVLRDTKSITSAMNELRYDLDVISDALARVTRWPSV

[2] = test system: bleomycin-induced mouse model; details: cited from earlier work
[3] = test system: bleomycin-induced mouse model; details: inflammatory phase and fibrogenic phase; cited from earlier work
[4] = stability and shelf life of the crystalline polymorphs of Compound A; format: physicochemical; details: compared to the crystalline Form 1 polymorph; particularly at temperatures of less than 95° C.
Description: The compound may be used to prevent or treat IPF in either an amorphous or crystalline form. Two different polymorph crystalline forms are identified by x-ray powder diffraction patterns set forth in FIG. 1 (Form 3) and FIG. 2 (Form 1) as well as Tables 1 and 2 (Form 3) and Tables 3 and 4 (Form 1).

CCOC(=O)[C@@H]1CC2(CCN(c3cc(O[C@H](c4ccc(Cl)cc4-c4ccccc4)C(F)(F)F)nc(N)n3)CC2)CN1 [Compound A, (S)-ethyl 8-(2-amino-6-((R)-1-(5-chloro-[1,1′-biphenyl]-2-yl)-2,2,2-trifluoroethoxy)pyrimidin-4-yl)-2,8-diazaspiro[4.5]decane-3-carboxylate]
efficacy in inhibiting TPH1 in mice [1]: demonstrated

CCN(CC)C(=O)N[C@H]1C[C@@H]2c3cccc4[nH]cc(c34)C[C@H]2N(C)C1 [terguride]
lung function, histology and collagen content ([2]; bleomycin-induced mouse model, treated mice): improved lung function and histology and collagen content
tolerability ([2]; mouse, in vivo): well-tolerated
efficacy in attenuating pulmonary fibrosis [3]: attenuating in both the inflammatory phase and the fibrogenic phase

CCOC(=O)[C@@H]1CC2(CCN(c3cc(O[C@H](c4ccc(Cl)cc4-c4ccccc4)C(F)(F)F)nc(N)n3)CC2)CN1 [crystalline Form 3, (S)-ethyl 8-(2-amino-6-((R)-1-(5-chloro-[1,1′-biphenyl]-2-yl)-2,2,2-trifluoroethoxy)pyrimidin-4-yl)-2,8-diazaspiro[4.5]decane-3-carboxylate]
stability and shelf life [4]: substantially greater stability and shelf life

CC1CCN(CC[C@H]2CCCN2S(=O)(=O)c2cccc(O)c2)CC1 [SB-269970]
efficacy in attenuating pulmonary fibrosis [3]: attenuating in both the inflammatory phase and the fibrogenic phase
